Data reported in patent US7778779B2, “Method of identifying a chemical entity which is a hydroxylase modulator” (Isis Innovation Limited, priority 2002, dated 2010).

Key:
Assay type in all cases: biochemical
FIH = target: T1, FIH (Homo sapiens, UniProt Q9NWT6); test: kinetic analyses of N-oxaloyl amino acid inhibitors of FIH; conditions: for IC50: inhibition of FIH, kinetic analyses
T1 construct: His6 (N, cleaved yes); made in house; host or cells: Escherichia coli BL21(DE3), pET28a(+)

[1] = tested on: procollagen prolyl-hydroxylase; test: inhibition of procollagen prolyl-hydroxylase by N-oxaloylalanine enantiomers; conditions: S- versus R-enantiomer
Description: (§1) Such inhibitors may or may not chelate to an active site metal.

PHD isozymes = test: inhibition of PHD isozymes by N-oxaloylalanine enantiomers; conditions: S- versus R-enantiomer
Description: as §1

T1 sequence (Q9NWT6 whole entry): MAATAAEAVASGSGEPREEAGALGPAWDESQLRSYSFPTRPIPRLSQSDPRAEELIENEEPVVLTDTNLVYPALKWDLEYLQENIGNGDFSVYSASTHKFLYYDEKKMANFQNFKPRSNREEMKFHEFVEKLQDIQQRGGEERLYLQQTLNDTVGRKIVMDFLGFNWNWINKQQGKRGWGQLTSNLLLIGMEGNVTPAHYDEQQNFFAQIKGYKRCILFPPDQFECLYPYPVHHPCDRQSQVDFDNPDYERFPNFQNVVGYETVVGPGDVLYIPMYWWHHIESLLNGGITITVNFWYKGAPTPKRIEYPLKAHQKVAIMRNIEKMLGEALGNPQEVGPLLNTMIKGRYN

| Compound | IC50 (FIH) [mM] | inhibition of FIH, in words (FIH; used as 2OG analogue in co-crystallisation) | relative potency of enantiomers (reversed selectivity) [1] | relative potency of enantiomers (reversed selectivity) (PHD isozymes) |
| --- | --- | --- | --- | --- |
| C[C@H](NC(=O)C(=O)O)C(=O)O (single isomer, unassigned) [R-enantiomer, N-oxaloylalanine] | 0.4 |  |  |  |
| O=C(O)CNC(=O)C(=O)O [NOG, N-oxaloylglycine, reference compound] |  | FIH inhibitor |  |  |
| C[C@H](NC(=O)C(=O)O)C(=O)O [S-enantiomer, N-oxaloylalanine] | 2.5 |  | more potent | more potent |
